Measured values as given in patent publication US20020188026A1, “Methods of sterilizing with dipercarboxylic acids” (Lynntech, Inc., priority 2000, published 2002).
Where “and” joins values, the source holds several entries; their conditions need not be identical. Identical values can stand only once.

Tests used:
[1] = Crude estimate of solubility in water; format: physicochemical; settings: crude experiment, estimated
Excerpt: A crude experiment was done to first estimate the solubility in water of diperglutaric acid (C5), dipersuberic acid (C8), and dipersebacic acid (C10) prepared in accordance with Example 1. It was estimated that the limit of solubility of these peracids in water was 10%, 0.8%, and 0.1% wt/v for diperglutaric, dipersuberic, and dipersebacic, respectively.

[2] = concentrated peracid solution; cited from earlier work
Staphylococcus aureus = assay: Zone of inhibition test; format: cell-based; settings: S. aureus, 20 μL on 6 mm disc, duplicate experiments
Protocol: (§1) Zone of inhibition tests are qualitative screens for the inhibitory effect of the compound being tested. Clear zones created by a compound on a bacterial lawn indicates bacteriostatic ability and possible bactericidal capability and the size of the zone of inhibition is a semi-qualitative measure of the strength of the compound. The procedure involved creating lawns of bacteria by spreading 100 μL of broth culture evenly on nutrient agar plates. The bacteria were drawn from broth cultures that had recently reached maximum density. The organisms were Staphylococcus aureus, Psuedomonas aeruginosa, and Escherichia coli. Sterile, 6 mm, white paper discs were placed in the middle of each bacterial lawn. 20 μL of treatment were dispensed onto the surface of each disc. The treatments were: 1.0% and 0.033% diperglutaric acid, 1.0% glutaric acid in water. Each treatment was performed in duplicate for each organism. The plates were incubated at 37° C. for 18-24 hours. All zones were then measured in millimeters across the diameter of the zone of inhibition.

Psuedomonas aeruginosa = assay: Zone of inhibition test; format: cell-based; settings: P. aeruginosa, 20 μL on 6 mm disc, duplicate experiments
Protocol: as §1

Escherichia coli = assay: Zone of inhibition test; format: cell-based; settings: E. coli, 20 μL on 6 mm disc, duplicate experiments
Protocol: as §1

E. coli = assay: Biopsy punch enumeration; format: cell-based; settings: 1% treatment
Protocol: (§2) Biopsy punch enumeration is an extension of the zone of inhibition test, which involves enumerating organisms on the surface or within a removed core (punch). This test provides a quantitative analysis of the viable organisms remaining after treatment. This procedure was carried out exactly the same as the zone of inhibition testing. After incubation, however, the disc was removed from the plate and a 6-mm core was taken with a sterile, disposable biopsy punch precisely in the location where the disc had been removed. The same three organisms were used and the following treatments were sampled in duplicate: 1.0% diperglutaric acid and 1.0% glutaric acid in water. The core of each plate was aseptically placed in a microcentrifuge tube with 1 ml of sterile 0.85% saline solution and placed on a vortex for 5 minutes. These samples were diluted and plated in duplicate on nutrient agar and allowed to incubate at 37° C. for 18-24 hours for enumeration.

S. aureus = assay: Biopsy punch enumeration; format: cell-based; settings: 1% treatment
Protocol: as §2

P. aeruginosa = assay: Biopsy punch enumeration; format: cell-based; settings: 1% treatment
Protocol: as §2

Bacillus subtilis spores = assay: Sporicidal testing, spores heat fixed to glass slides; format: cell-based; settings: for Log10 post-disinfection count (cfu/coupon): pre-disinfection 6.69
Protocol: Additional spore testing experiments were done with diperglutaric acid. In this example, the diperglutaric acid was dissolved in a 90% water and 10% ethanol solution and used to kill Bacillus subtilis spores. […] Sporicidal capabilities of diperglutaric acid were tested at various concentrations. These procedures called for a 30-minute treatment of Bacillus subtilis spores heat fixed to glass slides. Glass slides were cut in half lengthwise. A suspension of spores, obtained from Steris Corporation of Mentor, Ohio (order #Na026) in 10% bovine serum albumin (as a simulated organic load) was prepared at a concentration of 1.2×10^8 spores per mL. 100 μL of this suspension was heat-fixed to each glass slide. These slides were immersed in the following dilutions of the diperglutaric acid: 2%, 1%, 0.3%, 0.1%, and 0.03%.
Control slides were treated in glutaric acid: 2% and 1% in a 10% ethanol/water solution. All treatment concentrations were tested in duplicate. The spore coupons were immersed in 30 ml of test solution for 30 minutes. Following the treatment, the slides were rinsed in sterile water to remove residual acid. Each slide was then placed in a sterile 15-ml test tube containing 2 ml of sterile water. These tubes were sonicated for one hour to resuspend all spores. The sonicated slides were removed from the test tubes. The remaining solutions were serially diluted, plated in duplicate on nutrient agar and incubated for 18-24 hours at 37° C.
The control values (pre-disinfection counts) were obtained from spore carriers immersed in sterile distilled water for 30 minutes prior to rinsing, recovery, and enumeration. The average log10 recovery from these controls was log106.69 per carrier. This compares favorably with the initial number of spores added, which was log107.08. The number of viable spores recovered was 40% of the number initially applied. […] Losses of 90% or less are generally considered acceptable in this type of experiment. […] A log reduction of less than log100.5cfu/carrier was achieved. Thus, the unreacted parent carboxylic acid has little effect on spores. […] Even at a concentration of 0.33%, the diperglutaric acid's effect on spores was similar to that of 2% glutaraldehyde.

[3] = 2.0% freshly prepared glutaraldehyde preparation

## O=C(CCCCCCC(=O)OO)OO [dipersuberic acid]
[1]
  limit of solubility in water: 0.8 % wt/v

## O=C(CCCCC(=O)OO)OO [diperadipic acid]
[2]
  solubility for peracid concentrate solution: not soluble enough to prepare an adequate peracid concentrate solution

## O=C(CCCC(=O)OO)OO [Diperglutaric acid, diperglutaric acid]
Staphylococcus aureus; 0.033%
  Diameter of Zones of Inhibition: 10 mm and 9 mm
Staphylococcus aureus; 1% in water
  Diameter of Zones of Inhibition: 13 mm, 13 mm
Psuedomonas aeruginosa; 0.033%
  Diameter of Zones of Inhibition: 10 mm and 11 mm
Psuedomonas aeruginosa; 1% in water
  Diameter of Zones of Inhibition: 12 mm, 12 mm
Escherichia coli; 0.033%
  Diameter of Zones of Inhibition: 10 mm, 10 mm
Escherichia coli; 1% in water
  Diameter of Zones of Inhibition: 12 mm and 13 mm
[1]
  limit of solubility in water: 10 % wt/v
E. coli
  Log10 reduction (cfu/6 mm diameter sample): 7.44 log10
S. aureus
  Log10 reduction (cfu/6 mm diameter sample): 8.11 cfu/6 mm diameter sample
P. aeruginosa
  Log10 reduction (cfu/6 mm diameter sample): 7.53 cfu/6 mm diameter sample
Bacillus subtilis spores; 0.033% in 10% EtOH, 30 minutes
  Average log10 postdisinfection count (cfu/coupon): 4.99 cfu/coupon
  Average log10 reduction (cfu/coupon): 1.70 cfu/coupon
Bacillus subtilis spores; 0.1% in 10% EtOH, 30 minutes
  Average log10 postdisinfection count (cfu/coupon): 4.72 cfu/coupon
  Average log10 reduction (cfu/coupon): 1.97 cfu/coupon
Bacillus subtilis spores; 0.33% in 10% EtOH, 30 minutes
  Average log10 postdisinfection count (cfu/coupon): 3.57 cfu/coupon
  Average log10 reduction (cfu/coupon): 3.12 cfu/coupon
  Log10 post-disinfection count (cfu/coupon): 3.62 cfu/coupon and 3.52 cfu/coupon
Bacillus subtilis spores; 1% and 2% for 30 minutes
  viable spores recovered from carriers: no viable spores were recovered
Bacillus subtilis spores; 1.0% in 10% EtOH, 30 minutes
  Average log10 postdisinfection count (cfu/coupon): <1.0 cfu/coupon
  Average log10 reduction (cfu/coupon): 6.69 cfu/coupon
Bacillus subtilis spores; 2.0% in 10% EtOH, 30 minutes
  Average log10 postdisinfection count (cfu/coupon): <1.0 cfu/coupon
  Average log10 reduction (cfu/coupon): 6.69 cfu/coupon

## O=CCCCC=O [Glutaraldehyde, reference compound]
Bacillus subtilis spores; [3]
  Average log10 postdisinfection count (cfu/coupon): 3.10 cfu/coupon
  Average log10 reduction (cfu/coupon): 3.05 cfu/coupon

## O=C(CCCCCCCCC(=O)OO)OO [dipersebacic acid]
[1]
  limit of solubility in water: 0.1 % wt/v

## O=C(CCC(=O)OO)OO [dipersuccinic acid, reference compound]
[2]
  stability of peracid concentrate: did not form stable peracid concentrates

## O=C(O)CCCC(=O)O [Glutaric acid, reference compound]
Staphylococcus aureus; 1% in water
  Diameter of Zones of Inhibition: No zone
Psuedomonas aeruginosa; 1% in water
  Diameter of Zones of Inhibition: No zone
Escherichia coli; 1% in water
  Diameter of Zones of Inhibition: No zone
E. coli; predisinfection 7.44
  Log10 postdisinfection count (cfu/6 mm diameter sample): 6.75 cfu/6 mm diameter sample
S. aureus
  Log10 reduction (cfu/6 mm diameter sample): 0.63 cfu/6 mm diameter sample
S. aureus; predisinfection 8.11
  Log10 postdisinfection count (cfu/6 mm diameter sample): 7.48 cfu/6 mm diameter sample
P. aeruginosa
  Log10 reduction (cfu/6 mm diameter sample): 0.00 cfu/6 mm diameter sample
P. aeruginosa; predisinfection 7.53
  Log10 postdisinfection count (cfu/6 mm diameter sample): 7.57 cfu/6 mm diameter sample
Bacillus subtilis spores; 1.0% in 10% EtOH, 30 minutes
  Average log10 postdisinfection count (cfu/coupon): 6.23 cfu/coupon
  Average log10 reduction (cfu/coupon): 0.46 cfu/coupon
  Log10 post-disinfection count (cfu/coupon): 6.26 cfu/coupon and 6.19 cfu/coupon
Bacillus subtilis spores; 2.0% in 10% EtOH, 30 minutes
  Average log10 postdisinfection count (cfu/coupon): 6.26 cfu/coupon
  Average log10 reduction (cfu/coupon): 0.43 cfu/coupon
  Log10 post-disinfection count (cfu/coupon): 6.27 cfu/coupon and 6.24 cfu/coupon
Bacillus subtilis spores; concentrations of 1% and 2% for 30 minutes
  sporicidal effectiveness: not an effective sporicidal agent
